Measured values from US20080248008A1, “Inhibitors of Protein Kinase a Anchoring” (priority 2004, published 2008).

Columns and labels:
RI(Δ1-24) = biological target: T1, RI(Δ1-24) (Bos taurus, UniProt P00514); assay: Co-precipitation with recombinant RI(Δ1-24) added to HEK293 lysate; assay type: binding; settings: recombinant protein added to cell lysate
T1 construct: made in house; host or cells: E. coli BL21 (B121 [sic])
Source text: Constructs and mutagenesis. Oligonucleotides with the following sequences were directionally cloned into EGFP-C (Clonetech) vector via TOPO blunt vector (Invitrogen) by using SalI and BamHI sites. MEME3(+), 5′-GTC GAC-CTGGAGCAGTACGCCAACCAGCTGGCCGACCAGATCATCAAGGAGGCCACCGAG-GGA TCC-3′; MEME3 (−), 5′-GGA TCC-CTCGGTGGCCTCCTTGATGATCTGGTCGGCCAGCTGGTTGGCGTACTGCTCCAG-GTC GAC-3′; Scramble (+), 5′-GTCGACATCGAGAAGGAGCTGGCCCAGCAGTACCAGAACGCCGACGCCATCACCCTGGAGGGATCC-3′; and Scramble (−), 5′-GGATCCCTCCAGGGTGATGGCGTCGGCGTTCTGGTACTGCTGGGCCAGCTCCTTCTCGATGTCGAC-3′. The site specific mutation, A98S, was made in RI wild type cloned into pRSETB (Invitrogen) using a site specific-mutagenesis kit (Stratagene). RI( 1-11), RI(Δ1-15) and RI(Δ1-24) mutants were made by PCR and re-cloned into pRSETB (Invitrogen). All constructs were confirmed by sequencing.
HEK293 cells at […] were transfected with ten μg of plasmid DNA (GFP, GFP-MEME3 or GFP-Scrambled MEME3) by using the CaCl2 method. […]
In FIG. 4D, the co-precipitation of recombinant full length and N-truncated RI (added to the cell lysate) with MEME3 was detected by immunoblotting using a monoclonal antibody against RI (lane 2-4).

[1] = biological target: T2, RI in lipid rafts of Jurkat T cells (Homo sapiens, UniProt P10644); assay: PKA content of lipid rafts from transfected Jurkat T cells (densitometry); assay type: cell-based; settings: n=1
T2 construct: endogenous in cells; host or cells: Jurkat T cells
Experimental: Densitometric analysis. The densitometric analysis was performed using Scion Image (www.scioncorp.com) (Scion Coorperation, Mo., USA) or Quantity One version 4.5.0, (BioRad).
Cell cultures and transient transfections. The human leukemic T cell line Jurkat (clone E6.1), Jurkat TAg, a derivative of the Jurkat cell line stably transfected with the SV40 large T antigen (Clipstone, N. A., and Crabtree, G. R., 1992, Nature. 357:695-697) was cultured at 37° C. in RPMI medium (Gibco BRL) supplemented with 10% fetal calf serum, 2 mM glutamine, penicillin, streptomycin, 1 mM sodium pyruvate and nonessential amino acids. For transfections, cells (5×10^6) in 0.4 ml Opti-MEM were mixed with 40 μg of each DNA construct (GFP-MEME3 or GFP-Scrambled MEME3) in electroporation cuvettes with a 0.4-cm electrode gap (BioRad Laboratories) and subjected to an electric field of 250 V/cm with 960 μF capacitance. A total of 2×10^7 cells were transfected per DNA construct. The cells were expanded in complete medium and harvested after 20 h. The transfection efficiency was determined by microscopic analysis.
Immunoblot analysis. Immunocomplexes and lipid raft fractions were analysed on a 10, 15% or 4-20% PAGE and blotted onto PVDF membranes. […]
Lipid Raft Purification. […] The fractions were analysed by immunoblot analysis. […]

[2] = biological target: T3, N-terminal RIα deletion mutants (Bos taurus, UniProt P00514, A98S); assay: R-overlay with N-terminal RIα deletion mutants; assay type: binding
T3 construct: made in house; host or cells: E. coli BL21 (B121 [sic])
T3 sequence (P00514 25-380 A98S): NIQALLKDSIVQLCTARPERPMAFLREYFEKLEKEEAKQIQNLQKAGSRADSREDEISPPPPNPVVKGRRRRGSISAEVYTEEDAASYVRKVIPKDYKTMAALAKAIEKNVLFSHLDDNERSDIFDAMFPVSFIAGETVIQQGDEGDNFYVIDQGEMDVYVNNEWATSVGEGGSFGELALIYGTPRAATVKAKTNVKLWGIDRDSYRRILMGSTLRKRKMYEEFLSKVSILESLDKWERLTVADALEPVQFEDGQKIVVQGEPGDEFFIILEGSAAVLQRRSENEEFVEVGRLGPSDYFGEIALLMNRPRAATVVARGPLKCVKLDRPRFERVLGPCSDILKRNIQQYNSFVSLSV
Experimental: (§1) R-overlay. R-overlays were conducted as described, using ^32P-labeled recombinant murine RII (Hausken, Z. E., et al., 1998 in Protein Targeting Protocols, ed. Clegg, R. A. (Humana, Totowa, N.J.), Vol. 88, pp. 47-64) or recombinant bovine RI (A98S) or by cold RI-overlay where bound RIα was detected by Western blot. Cold RI-overlay was performed by incubating the membranes with 250 nM RI overnight at 4° C., then the membranes were washed five times in TBST for 5 min. Detection of RI was performed using an anti-RI rabbit polyclonal antibody (Santa Cruz) at a concentration of 0.2 μg/μl for 1 hour at 4° C. Then the membranes were washed five times for 5 minutes in PBS followed by incubation with HRP-conjugated anti-rabbit IgGs (1:5000) for 1 hour at 4° C. The membranes were washed in PBS as described above before detection by Supersignal West Dura Extended Duration Substrate (Pierce).
(§2) Constructs and mutagenesis. […]
(§3) MEME3 and SM3 (scrambled negative control peptide) were cloned by preferred codon usage (Haas et al., 1996, Current Biol., 6:315-324) and with an N-terminal GFP-fusion. Lysate from transfected HEK293 cells (FIG. 10, left panel in A) and MEME3 synthesized on membrane (right panel in A) were analysed for R binding by RIα-^32P-overlay and RIIα-^32P overlay. […]

[3] = test system: N-terminal RIα deletion mutants; assay: R-overlay with N-terminal RIα deletion mutants; assay type: binding; settings: compared with RIα
Experimental: as §1, §2, §3

T1 sequence (P00514 25-380, stated change not applied): as the sequence (P00514 25-380 A98S) above, with S74A counted along it

CC[C@H](C)[C@H](NC(=O)[C@H](CCC(N)=O)NC(=O)[C@H](CC(=O)O)NC(=O)[C@H](C)NC(=O)[C@H](CC(C)C)NC(=O)[C@H](CCC(N)=O)NC(=O)[C@H](CC(N)=O)NC(=O)[C@H](C)NC(=O)[C@H](Cc1ccc(O)cc1)NC(=O)[C@H](CCC(N)=O)NC(=O)[C@H](CCC(=O)O)NC(=O)[C@@H](N)CC(C)C)C(=O)N[C@H](C(=O)N[C@@H](CCCCN)C(=O)N[C@@H](CCC(=O)O)C(=O)N[C@@H](C)C(=O)N[C@H](C(=O)N[C@@H](CCC(=O)O)C(=O)N[C@@H](CCCCNC(=O)c1ccc2c(c1)C(=O)OC21c2ccc(O)cc2Oc2cc(O)ccc21)C(N)=O)[C@@H](C)O)[C@@H](C)CC [MEME3]
co-precipitation with RI(Δ1-24) (RI(Δ1-24)): did not precipitate MEME3 | reduction of RI concentration in lipid rafts compared to SM3 [1]: 40% | binding to RIα (Δ1-24) (overlay) [2]: No binding | binding to RIα (Δ1-11) and RIα (Δ1-15) (overlay) [3]: even higher affinity
